Laboratory results taken from PubChem BioAssay AID2744 (NMMLSC, 2010).
Active and inactive are the calls of the source.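 Rule for the calls: active = fitted half-maximal concentration for changing reporter fluorescence at or below a set limit; inactive = the rest.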

Molecular target: Citrate synthase, peroxisomal (Saccharomyces cerevisiae (strain ATCC 204508 / S288c)) (UniProt P08679)
Experiment: CIT2-GFP expression modulators in yeast, dose response, flow cytometry, MLPCN hits (AID 2744)
Conditions: S. cerevisiae CIT2-GFP strain, 3 h; for GFP fluorescence, higher = induction: at 33 µM (top of the series); for EC50: flow cytometry fluorescence

Chain of Citrate synthase, peroxisomal (Saccharomyces cerevisiae (strain ATCC 204508 / S288c)) (P08679 whole entry, looked up): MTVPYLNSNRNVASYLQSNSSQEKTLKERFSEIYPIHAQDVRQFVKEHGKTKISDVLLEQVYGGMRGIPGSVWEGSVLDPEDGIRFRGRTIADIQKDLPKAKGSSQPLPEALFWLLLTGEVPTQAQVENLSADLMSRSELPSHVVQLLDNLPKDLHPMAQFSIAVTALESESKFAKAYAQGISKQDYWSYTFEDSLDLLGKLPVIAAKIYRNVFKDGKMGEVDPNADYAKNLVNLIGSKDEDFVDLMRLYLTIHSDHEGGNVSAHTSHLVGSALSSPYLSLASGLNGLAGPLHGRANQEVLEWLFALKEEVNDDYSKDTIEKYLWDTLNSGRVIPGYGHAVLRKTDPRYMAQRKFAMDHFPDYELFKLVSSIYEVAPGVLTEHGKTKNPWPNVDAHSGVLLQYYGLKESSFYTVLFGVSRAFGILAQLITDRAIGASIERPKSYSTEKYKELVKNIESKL

Row | SMILES | GFP fluorescence, higher = induction | EC50
1 | CCCCS(=O)(=O)/C=C\C=C/S(=O)(=O)CCCC | inactive | 
2 | O=C1C=C(Nc2ccc(Cl)cc2)C(=O)N1c1ccc(Cl)cc1 | inactive | 
3 | CCCOc1ccc(C(=O)NNC(=S)NC(=O)c2ccco2)cc1 | inactive | 
4 | CCN1C(=O)/C(=C\C(=O)c2cccs2)c2cc(Br)ccc21 | inactive | 
5 | Cc1ccc2[nH]cc(/C=C/c3cc[n+](C)cc3)c2c1 | inactive | 
6 | Cc1cccc2c1NC(=O)/C2=C\C(=O)c1cccs1 | inactive | 
7 | O=S(=O)(/N=C(\Sc1ccc(Cl)cc1)c1ccccc1)c1ccccc1 | inactive | 
8 | O=C1c2cccc3c([N+](=O)[O-])ccc(c23)C(=O)N1O | inactive | 
9 | CCCc1ccc(OCC(=O)NNC(=S)NC(=O)c2ccco2)cc1 | inactive | 
10 | O=c1oc2ccccc2c(O)c1[C@H]1c2ccc(O)cc2Oc2c1c(=O)oc1ccccc21 | inactive | 
11 | Cc1ccc(/C=N/Nc2ncc(Cl)cc2Cl)s1 | inactive | 
12 | CC(=O)c1ccc(N2CCN(C(=O)c3ccc(Br)cc3)CC2)c(F)c1 | inactive | 
13 | Cc1[nH][nH]c(=O)c1C(c1ccc(-c2ccc(Cl)c(Cl)c2)o1)c1c(C)[nH][nH]c1=O | inactive | 
14 | Cc1nn2c(NCc3ccccn3)c3c(nc2c1-c1ccccc1)CCC3 | inactive | 
15 | O=C(COc1ccccc1)NNC(=S)NC(=O)c1ccccc1 | inactive | 
16 | O=C(/C=C/c1ccccc1)NC(=S)NNC(=O)Cc1cccs1 | inactive | 
17 | O=C(O)C1Sc2[nH]c(=O)sc2C2c3cc(Br)ccc3OC(=O)C12 (configuration not stated) | inactive | 
18 | COc1ccc2c(/C=C/c3cc[n+](C)cc3)c[nH]c2c1 | inactive | 
19 | Cc1ccccc1OCCOC(=O)c1ccc(S(=O)(=O)N2CCCC2)cc1 | inactive | 
20 | CC(=O)CSc1ncnc2c1cnn2-c1ccccc1 | inactive | 
21 | Cc1ccc(NC(=O)c2cc(N3C(=O)C=CC3=O)ccc2N2CCOCC2)cc1Cl | inactive | 
22 | O=C1C2C3C=CC(CO)(O3)C2C(=O)N1c1ccc(-c2ccccc2)cc1 (configuration not stated) | inactive | 
23 | O=S1(=O)C=C(Sc2nc3ccccc3s2)c2ccccc21 | inactive | 
24 | Oc1ccc(Br)cc1/C=N/Nc1ccccn1 | inactive | 
25 | CCc1cc(C(=O)Nc2nc(-c3ccccn3)cs2)sc1C | inactive | 

Row | SMILES | GFP fluorescence, higher = induction | EC50
26 | Cc1cccc(C(=O)NNC(=S)NC(=O)c2ccccc2)c1 | inactive | 
27 | CC(C)Oc1ccc(C(=O)/C=C2/C(=O)Nc3ccccc32)cc1 | inactive | 
28 | O=C(/C=C/c1ccc(Cl)c([N+](=O)[O-])c1)c1cccnc1 | inactive | 
29 | COc1ccc(C(c2c(C)[nH]n(C(N)=S)c2=O)C(C#N)C#N)cc1 (configuration not stated) | inactive | 
30 | COc1ccc(C(=O)/C=C2/C(=O)Nc3ccccc32)c(OC)c1 | inactive | 
31 | CC(=O)Oc1ccc(/C=c2\sc3ncnn3c2=O)cc1 | inactive | 
32 | Cc1cccnc1Nc1nc(-c2ccccn2)cs1 | inactive | 
33 | Cc1ccc(N2C(=O)C(Cl)=C(Nc3c(C)n(C)n(-c4ccccc4)c3=O)C2=O)cc1 | inactive | 
34 | O=C(Oc1ccnc2cc(Cl)ccc12)N1CCOCC1 | inactive | 
35 | O=c1oc(/C=C/c2ccc([N+](=O)[O-])s2)nc2ccccc12 | inactive | 
36 | CCCCc1ccc(NC(=O)CC(C)=O)cc1 | inactive | 
37 | CC(=O)NN1C(=O)/C(=C/c2ccc(Br)o2)SC1=S | inactive | 
38 | COc1ccc(N=Cc2nc(-c3ccccc3)oc2OC(C)=O)cc1 | inactive | 
39 | CC(C)[C@@]1(c2ccccc2)ON(c2ccccc2C(F)(F)F)C1=O | inactive | 
40 | Cc1ccccc1[C@]1(C)ON(c2ccccc2C(F)(F)F)C1=O | inactive | 
41 | COc1ccc2c(c1)c(/C=C/c1cc[n+](C)cc1)cn2C | inactive | 
42 | Cc1cccc(N=C2NC(=O)/C(=C/C=C/c3ccco3)S2)c1C | inactive | 
43 | CCCCC1OC23CCCCC2C(C#N)(C(=N)O3)C1(C#N)C#N (configuration not stated) | inactive | 
44 | CC(C)Cn1c(=O)c(C(=O)Nc2ccncc2)c(O)c2ccccc21 | inactive | 
45 | COc1cccc(/C=C2\C(=O)N(c3cccc(C)c3)C(=O)c3ccccc32)c1 | inactive | 
46 | Cc1cc(C)c(S(=O)(=O)N2CCC(C(=O)NCc3ccc(Cl)cc3Cl)CC2)c(C)c1 | inactive | 
47 | Cc1cccc(C)c1NC(=O)C(Cl)C(=O)c1ccccc1 (configuration not stated) | inactive | 
48 | COc1cc(NC(=O)c2cccc(C)c2)ccc1NC(=O)c1cc2ccccc2o1 | inactive | 
49 | COc1ccc(C2=CC(=O)N(Nc3ccccc3)C2=O)cc1 | inactive | 
50 | CC(=O)Nc1ncnc2c1c(-c1ccc(Cl)cc1)nn2C(C)(C)C | inactive | 

Row | SMILES | GFP fluorescence, higher = induction | EC50
51 | O=C(/C=C/c1ccc(Br)cc1)NC(=S)NNC(=O)c1ccco1 | inactive | 
52 | COc1cc(/C=C/[N+](=O)[O-])ccc1O | inactive | 
53 | COC(=O)c1cc(N2C(=O)C3C(C2=O)C2(C)C=CC3(C)O2)ccc1Cl (configuration not stated) | inactive | 
54 | O=C1N(c2ccccc2C(F)(F)F)O[C@]1(c1ccccc1)C1CCCCC1 | inactive | 
55 | CCN(CC)c1ccc2cc(-c3nc4ccccc4[nH]3)c(=O)oc2c1 | inactive | 
56 | O=C1NC(=O)N(Cc2ccc(F)cc2)C(=O)/C1=C/c1cccs1 | inactive | 
57 | O=C1NC(=O)N(CCc2ccc(F)cc2)C(=O)/C1=C/c1cccs1 | inactive | 
58 | COC(=O)/C(=C/c1c[nH]c2ccccc12)[N+](=O)[O-] | inactive | 
59 | O=C1C=C(c2ccccc2)C(=O)N1Nc1ccccc1 | inactive | 
60 | COC(=O)CCS(=O)(=O)c1nc(-c2ccccc2)cc(C(F)(F)F)n1 | inactive | 
61 | O=C1NC(=S)NC(=O)C1=Cc1ccc2c(c1)CCN2CCCCl | inactive | 
62 | COc1ccc(NC2=C(Cl)C(=O)N(CCc3ccccc3)C2=O)cc1 | inactive | 
63 | CCN(CC)C(=O)Oc1ccnc2cc(Cl)ccc12 | inactive | 
64 | COc1cc(/C=C2\C(=O)N(CCC#N)N=C2C)c(Br)cc1OC(C)C | inactive | 
65 | COc1cccc(N=Nc2ccc(O)c3ncccc23)c1 | inactive | 
66 | Cc1ccc2c(nc3s/c(=C\c4ccc(-c5ccccc5C(=O)O)o4)c(=O)n32)c1C | inactive | 
67 | N/C(=N\OC(=O)c1cc(Br)ccc1Cl)c1ccccn1 |  | 4110 nM
68 | C=CCOc1ccc(C(=O)/C=C2/C(=O)Nc3ccccc32)cc1 | inactive | 
69 | O=c1[nH]c(-c2ccc(Cl)cc2)cs1 | inactive | 
70 | O=C1ON=C(c2ccccc2)/C1=C/c1ccco1 | inactive | 
71 | O=S(=O)(CCN(CCS(=O)(=O)C(F)(F)F)CC1CCCO1)C(F)(F)F (configuration not stated) | inactive | 
72 | N#Cc1c2ccc([N+](=O)[O-])cc2[n+]([O-])n1-c1ccccc1 | inactive | 
73 | Cc1ccc(NC(=O)ON=C2CCCC2)cc1 |  | 3790 nM
74 | CCC(=O)Oc1oc(-c2ccccc2)nc1C=Nc1ccccc1OC | inactive | 
75 | Cc1cccc(NC(c2ccc(C)s2)c2ccc3ccc(C)nc3c2O)n1 (configuration not stated) | inactive | 

Row | SMILES | GFP fluorescence, higher = induction | EC50
76 | Cc1ccc(/C=C2\C(=O)NC(=S)N(c3ccccc3F)C2=O)s1 | inactive | 
77 | COc1ccc(-c2cc3cc(C(=O)O)ccn3c2C(=O)c2ccccc2)cc1 | inactive | 
78 | O=S(=O)(c1ccccc1)c1ccc(C(F)(F)F)cn1 | inactive | 
79 | Cc1ccc(S(=O)(=O)c2ccc([N+](=O)[O-])cn2)cc1 | inactive | 
80 | CC1=CC(=O)C(C(C)C)=C/C1=N/OS(=O)(=O)c1ccccc1 | inactive | 
81 | CCN1/C(=C/C=C/c2sc3ccccc3[n+]2CC)Sc2ccccc21 | inactive | 
82 | O=C(/C=C/c1ccccc1[N+](=O)[O-])c1ccccc1Br | inactive | 
83 | COc1ccc(-c2cc3nc4n(c(=O)c3s2)CCC4)cc1 | inactive | 
84 | CC(=O)N(\C=C/C=C/C=C1\Sc2ccccc2C1=O)c1ccccc1 | inactive | 
85 | CCC(=O)Nc1ccc(NC(=O)c2cc3ccccc3o2)c(OC)c1 | inactive | 
86 | Cc1cc(/C=C2/SC(=S)N(c3cccc(Cl)c3)C2=O)c(C)n1-c1cccnc1 | inactive | 
87 | O=C(COc1ccccc1)N1CCN(c2ncnc3c2cnn3-c2ccccc2)CC1 | inactive | 
88 | O=C(Nc1ccc(NC(=O)c2cc3ccccc3o2)cc1)c1ccco1 | inactive | 
89 | Cc1ccc(C(=O)NNC(=S)NC(=O)COc2ccccc2)cc1 | inactive | 
90 | Cc1cccc(Nc2nc(-c3ccccn3)cs2)n1 | inactive | 
91 | O=C(Nc1ccc(Cl)cc1Cl)c1cccc(N2C(=O)C=CC2=O)c1 | inactive | 
92 | CCCc1cc(N2CCN(c3ccccn3)CC2)n2nc(C)c(-c3ccccc3)c2n1 | inactive | 
93 | O=C(Nc1ccc(Cl)cc1)ON=C1CCCC1 |  | 1230 nM
94 | Oc1ccc2ccccc2c1N=Nc1nccs1 | inactive | 
95 | Cc1ccc(N=c2ssnc2Cl)cc1 | inactive | 
96 | CC1(C)C[C@H]2C=C(C=O)[C@]3(C=O)C[C@]3(C)[C@H]2C1 |  | 1410 nM
97 | O=C1C(Cl)=C(Nc2ccccc2O)C(=O)N1CCc1ccccc1 | inactive | 
